Values of other authors in publication doi:10.1101/435081v1 (bioRxiv, 2018).

System: Lb. sakei NCDO2714
Details: single peptide alone

Substance | Growth inhibition when alone
acidocin LF221A [Acd221A] | inhibited the growth
acidocin LF221B [Acd221B] | inhibited the growth
